“And” between values parts separate entries of the source, which are not always exact repeats. Equal values may be shown once. Read-outs that look alike come from different tables or passages of the source.
Assays:
PC-3 cells = assay: MTT cytotoxicity assay, prostate cancer cell line PC-3; type: cell-based; details: for IC50: Homo sapiens, PC-3, MTT, 48 h
Protocol: (§1) The cytotoxic activity of the compounds was tested against different mammalian cancer cells, prostate carcinoma cells (PC-3), hepatocellular carcinoma (HepG2) and colon cancer cells (HCT-116). African green monkey kidney cells (Vero-B) were used as normal cells to study the selectivity towards the cancer cells. The cell lines were obtained from the American Type Culture Collection (ATCC). The cells were cultivated at 37 °C and 10% CO2 in DMEM (Lonza, Germany) medium supplemented with 10% fetal bovine serum (Lonza, Germany), 100 IU ml^−1 penicillin and 100 μg ml^−1 streptomycin (Lonza, Germany). […] The spirooxindole derivatives were solubilized in DMSO and stored at −20 °C. The viability of the cells was quantified using 3-(4,5-dimethylthiazol-2-yl)-2,5-diphenyl tetrazolium bromide (MTT), which measures the activity of mitochondrial succinate dehydrogenase in viable cells.[45,46]
(§2) The cells were seeded in 96-well plates at a concentration of 5 × 10^4 cells per ml (100 μl per well). […] DMSO was used as a negative control (0.1%). The cells were incubated for 48 h. After that, 15 μl of MTT (5 mg ml^−1 in PBS) was added to each well and incubated for another 4 h. The formazan crystals were solubilized by 100 μl of acidified SDS solution (10% SDS/0.01 N HCl in PBS). The absorbance was measured after 14 h of incubation at 37 °C and under 5% CO2 at 570 nm by using a BioTek microplate reader. Each experiment was repeated 3 times and a standard deviation was calculated (SD±). […] The growth of the cells was monitored and the images were acquired by Gx microscopes (GXMGXD202 Inverted Microscope) at 10× magnification.

phosphodiesterase 1 = type: biochemical, snake
Protocol: A phosphodiesterase I inhibition assay was performed using snake venom according to a previously reported method with minute variations. Briefly, 33 mM Tris–HCl buffer of pH 8.8 (97 μl), 30 mM magnesium acetate with an enzyme concentration of 0.000742 U well^−1 and 0.33 mM bis-(p-nitrophenyl) phosphate (Sigma N-3002, 60 μl) as substrate were taken. […] After a pre-incubation period of 30 min, the enzyme with the test samples was observed spectrophotometrically for enzyme activity on a microtiter plate reader at 37 °C by following the rate of change in OD min^−1 at 410 nm of the p-nitrophenol released from p-nitrophenyl phosphate. All assays were processed in triplicate.[47]

HepG2 cells = assay: MTT cytotoxicity assay, hepatocellular carcinoma HepG2; type: cell-based; details: for IC50: Homo sapiens, HepG2, MTT, 48 h
Protocol: as §1, §2

HCT-116 cells = assay: MTT cytotoxicity assay, colorectal cancer cell line HCT-116; type: cell-based; details: for IC50: Homo sapiens, HCT-116, MTT, 48 h; for SI (selectivity index): IC50 normal (VERO-B) / IC50 cancer (HCT-116)
Protocol: as §1, §2

Vero-B cells = assay: MTT cytotoxicity assay, normal cells Vero-B; type: cell-based, African green monkey; details: Chlorocebus sabaeus, Vero B, 48 h
Protocol: as §1, §2

[1] = ± SD of 3 experiments, read-out: PC-3 (IC50)
[2] = read-out: PC-3 (IC50, μg ml^−1)
[3] = ± SD of 3 experiments, read-out: HepG2 (IC50)
[4] = read-out: HepG2 (IC50, μg ml^−1)
[5] = ± SD of 3 experiments, read-out: HCT-116 (IC50)
[6] = read-out: HCT-116 (IC50, μg ml^−1)

Structure (SMILES) | IC50 (PC-3 cells; [1]) | IC50 (PC-3 cells; [2]) | inhibitory activity against phosphodiesterase enzyme (phosphodiesterase 1; at 2 μM) | IC50 (HepG2 cells; [3]) | IC50 (HepG2 cells; [4]) | IC50 (HCT-116 cells; [5]) | IC50 (HCT-116 cells; [6]) | SI (selectivity index) (HCT-116 cells) | IC50 (Vero-B cells) | melting point | SI (selectivity index) (PC-3 cells; IC50 normal (VERO-B) / IC50 cancer (PC-3)) | SI (selectivity index) (HepG2 cells; IC50 normal (VERO-B) / IC50 cancer (HepG2)) | IC50 (phosphodiesterase 1; positive control)
O=C(c1c[nH]c2ccccc12)[C@@H]1C(c2ccc(Cl)cc2Cl)[C@@H]2CCCN2[C@@]12C(=O)Nc1ccccc12 (stereo partly drawn) [4d, (2′R,3S,7a′S)-1′-(2,4-Dichlorophenyl)-2′-(1H-indole-3-carbonyl)-1′,2′,5′,6′,7′,7a′-hexahydrospiro[indoline-3,3′-pyrrolizin]-2-one] | 2 ± 0.125 µM | 1 µg/mL | 74.2% | 2 ± 0.1 µM | 1 µg/mL | 9 ± 0.6 µM | 4.6 µg/mL | > 1 and 1 | 9 µM | 149 to 151 °C |  |  | 
COc1cc(C2[C@@H](C(=O)c3c[nH]c4ccccc34)[C@]3(C(=O)Nc4ccccc43)N3CCC[C@@H]23)cc(OC)c1OC (stereo partly drawn) [4n, (2′R,3S,7a′S)-2′-(1H-Indole-3-carbonyl)-1′-(3,4,5-trimethoxyphenyl)-1′,2′,5′,6′,7′,7a′-hexahydrospiro[indoline-3,3′-pyrrolizin]-2-one] | 17 ± 2 µM | 9.4 µg/mL |  | 28 ± 2 µM | 15.7 µg/mL | 20 ± 1.25 µM | 11.1 µg/mL | 2 | 40 µM | 179 to 181 °C | 2.4 | 1.4 | 
O=C(O)CN(CCN(CC(=O)O)CC(=O)O)CC(=O)O [EDTA, reference compound] |  |  |  |  |  |  |  |  |  |  |  |  | 274 ± 0.007 µM

— article PMC9079959, “Substituted spirooxindole derivatives as potent anticancer agents through inhibition of phosphodiesterase 1” (RSC Advances, 2018)
